Test results reported in ChEMBL document CHEMBL1138665, “Probing the activity differences of simple and complex brominated aryl compounds against 15-soybean, 15-human, and 12-human lipoxygenase” (J Med Chem, 2004).

Tests used:
[1] = Inhibitory effect on soybean 15-lipoxygenase; parameters: species or system Glycine max
[2] = molecular target: T1, Polyunsaturated fatty acid lipoxygenase ALOX12 (Homo sapiens, UniProt P18054); experiment: Inhibitory effect on human platelet 12-lipoxygenase
T1 sequence (P18054 whole entry): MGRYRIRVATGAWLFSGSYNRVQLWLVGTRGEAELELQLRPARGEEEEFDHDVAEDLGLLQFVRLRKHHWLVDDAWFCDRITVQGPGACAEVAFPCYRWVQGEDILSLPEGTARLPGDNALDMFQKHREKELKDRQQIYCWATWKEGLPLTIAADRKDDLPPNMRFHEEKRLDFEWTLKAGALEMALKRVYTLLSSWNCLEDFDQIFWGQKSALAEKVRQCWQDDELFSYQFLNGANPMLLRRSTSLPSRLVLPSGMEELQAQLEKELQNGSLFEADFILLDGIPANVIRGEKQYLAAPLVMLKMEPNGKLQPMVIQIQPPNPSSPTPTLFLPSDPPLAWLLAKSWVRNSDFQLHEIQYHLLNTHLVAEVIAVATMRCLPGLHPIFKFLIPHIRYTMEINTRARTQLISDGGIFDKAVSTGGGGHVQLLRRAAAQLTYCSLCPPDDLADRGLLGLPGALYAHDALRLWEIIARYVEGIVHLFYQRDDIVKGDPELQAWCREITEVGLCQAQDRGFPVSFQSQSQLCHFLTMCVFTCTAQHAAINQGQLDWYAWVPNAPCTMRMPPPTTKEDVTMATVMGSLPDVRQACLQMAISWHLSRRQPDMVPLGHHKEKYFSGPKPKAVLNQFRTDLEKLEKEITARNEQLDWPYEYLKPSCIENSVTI

[3] = molecular target: T2, Polyunsaturated fatty acid lipoxygenase ALOX15 (Homo sapiens, UniProt P16050); experiment: Inhibitory effect on human reticulocyte 15-lipoxygenase
T2 sequence (P16050 whole entry): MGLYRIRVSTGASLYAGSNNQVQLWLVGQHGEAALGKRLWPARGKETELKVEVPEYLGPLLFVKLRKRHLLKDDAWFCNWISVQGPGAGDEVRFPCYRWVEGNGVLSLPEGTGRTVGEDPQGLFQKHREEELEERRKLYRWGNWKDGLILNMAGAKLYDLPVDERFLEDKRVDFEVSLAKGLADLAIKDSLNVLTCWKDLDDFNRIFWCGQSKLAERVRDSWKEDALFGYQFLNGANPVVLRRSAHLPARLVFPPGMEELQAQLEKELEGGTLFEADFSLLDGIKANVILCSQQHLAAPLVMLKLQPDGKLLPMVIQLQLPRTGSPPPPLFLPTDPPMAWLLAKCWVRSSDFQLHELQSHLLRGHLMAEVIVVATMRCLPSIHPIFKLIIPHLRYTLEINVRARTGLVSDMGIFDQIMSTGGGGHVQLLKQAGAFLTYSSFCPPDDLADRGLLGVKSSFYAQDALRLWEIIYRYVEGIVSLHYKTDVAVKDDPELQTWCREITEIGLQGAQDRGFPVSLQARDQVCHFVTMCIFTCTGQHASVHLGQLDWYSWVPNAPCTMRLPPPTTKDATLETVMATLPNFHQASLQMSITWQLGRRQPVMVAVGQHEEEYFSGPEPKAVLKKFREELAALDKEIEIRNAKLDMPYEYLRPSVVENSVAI

| SMILES | IC50 [1] [µM] | IC50 [2] [µM] | IC50 [3] [µM] |
| --- | --- | --- | --- |
| Oc1c(Br)cccc1Br | > 100 | > 100 | > 100 |
| Oc1c(Br)cc(Br)cc1Oc1c(Br)cc(Br)c(Br)c1O | > 100 | 6.2 | 2.2 |
| Oc1c(Br)cc(Br)cc1Oc1c(O)c(Br)c(Br)c(Br)c1Br | > 100 | 0.41 | 0.79 |
| CC(C)(c1ccc(O)c(Br)c1)c1cc(Br)c(O)c(Br)c1 | > 100 | 7 | 5 |
| OCc1ccc(Br)cc1 | > 100 | > 100 | > 100 |
| CC(C)(c1cc(Br)c(O)c(Br)c1)c1cc(Br)c(O)c(Br)c1 | > 100 | 10 | 4 |
| Oc1cccc(Br)c1 | > 100 | > 100 | > 100 |
| CC(Cc1ccc(O)c(O)c1)[C@H](C)Cc1ccc(O)c(O)c1 (stereo not given in full) | 0.18 | – | – |
| Oc1ccccc1Br | > 100 | > 100 | > 100 |
| Oc1c(Br)cc(Br)c(Br)c1Oc1ccc(Br)cc1Br | 9 | 6 | 5 |
| COc1cc(Br)cc(Br)c1Oc1cc(Br)cc(Br)c1O | > 100 | 12 | 10 |
| O=C(N/C=C/c1ccc(O)c(Br)c1)/C(Cc1cc(Br)c(O)c(Oc2c(Br)cc(C/C(=N\O)C(=O)NCCc3ccc(O)c(Br)c3)cc2Br)c1)=N/O | 59 | 0.4 | 2 |
| Oc1ccc(Br)cc1Br | > 100 | > 100 | – |
| CCOc1ccc(Br)cc1 | > 100 | > 100 | > 100 |
| Oc1ccc(Br)cc1Oc1c(O)ccc(Br)c1Br | > 100 | 47 | – |
| Oc1c(Br)c(Br)c(Br)c(Br)c1Oc1ccc(Br)cc1Br | 7 | 0.7 | 1.8 |
| Oc1ccc(Br)cc1 | 48 | > 100 | 55 |
| O=C1N/C=C/c2ccc(c(Br)c2)Oc2cc(cc(Br)c2O)CCNC(=O)/C(=N/O)Cc2ccc(c(Br)c2)Oc2cc(cc(Br)c2O)C/C1=N\O [BASTADIN 7] | 27 | 2.3 | 4 |
| Oc1cc(Br)c(Br)c2c1Oc1cc(Br)cc(Br)c1O2 [SPONGIADIOXIN A] | > 100 | 50 | – |
| Oc1cc(Br)cc2c1Oc1cc(Br)cc(Br)c1O2 [SPONGIADIOXIN C] | > 100 | 30 | 0.8 |
